Each compound was assayed against T1, human Werner helicase (WRN-BV08, Uniprot Q14191, amino acids 517-1235 with L1074F point mutation) (Homo sapiens, UniProt Q14191, L1074F) (assay: WRN (BV08) ADP-Glo Assay). Details: 0.15 nM WRN, 5 μM ATP, 0.1 nM DNA duplex, 15 min preincubation, 60 min at 25° C., pH 7.5, 1% DMSO; read-out: ADP-Glo_hWRN_IC50.
T1 construct: Uniprot Q14191, amino acids 517-1235 with L1074F point mutation; TEV-cleavable 8×His (C, cleaved yes); made in house; host or cells: Sf9 insect cells (baculovirus)
T1 sequence (Q14191 with tags, fused parts or gaps L1074F limits assumed): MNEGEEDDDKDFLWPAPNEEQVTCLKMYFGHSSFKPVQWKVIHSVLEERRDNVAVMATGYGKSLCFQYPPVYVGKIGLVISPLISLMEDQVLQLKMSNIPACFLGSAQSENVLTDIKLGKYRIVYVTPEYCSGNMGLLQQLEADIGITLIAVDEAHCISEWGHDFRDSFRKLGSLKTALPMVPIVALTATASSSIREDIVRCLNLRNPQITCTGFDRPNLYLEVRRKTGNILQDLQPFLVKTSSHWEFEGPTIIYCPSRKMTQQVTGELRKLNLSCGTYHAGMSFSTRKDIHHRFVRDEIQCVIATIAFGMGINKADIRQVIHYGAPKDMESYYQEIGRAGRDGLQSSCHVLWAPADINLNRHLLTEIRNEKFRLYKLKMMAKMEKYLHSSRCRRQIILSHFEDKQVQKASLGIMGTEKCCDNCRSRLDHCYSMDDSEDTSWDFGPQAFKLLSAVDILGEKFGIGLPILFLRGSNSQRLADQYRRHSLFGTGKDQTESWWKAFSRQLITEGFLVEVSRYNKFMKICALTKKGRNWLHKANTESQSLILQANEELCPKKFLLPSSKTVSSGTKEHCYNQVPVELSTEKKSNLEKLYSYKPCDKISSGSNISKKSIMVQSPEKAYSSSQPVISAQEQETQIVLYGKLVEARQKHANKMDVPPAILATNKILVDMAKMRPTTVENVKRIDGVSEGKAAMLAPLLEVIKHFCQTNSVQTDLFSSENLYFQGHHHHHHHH
Format: biochemical
How it was run: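 Percent inhibition was normalised to DMSO (max) and 20 μM NSC-617145 (min) controls from ADP-Glo luminescence, and IC50 values came from a four-parameter fit. The reaction ran 60 min at 25 °C with 0.15 nM WRN, 5 μM ATP and 0.1 nM duplex DNA.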

| SMILES | IC50 |
| --- | --- |
| O=C(Cc1ccc(-c2ccc(F)cc2F)cc1)N(Cc1ccncc1)C1C=CS(=O)(=O)C1 (stereo not shown) [I-203, 2-{2′,4′-difluoro-[1,1′-biphenyl]-4-yl}-N-(1,1-dioxo-2,3-dihydro-1lambda6-thiophen-3-yl)-N-[(pyridin-4-yl)methyl]acetamide] | 0.5 to 5 µM |
| O=C(Cc1c[nH]c2ccccc12)N(Cc1ccncc1)C1C=CS(=O)(=O)C1 (stereo not shown) [I-493, N-(1,1-dioxo-2,3-dihydro-1lambda6-thiophen-3-yl)-2-(1H-indol-3-yl)-N-[(pyridin-4-yl)methyl]acetamide] | > 50 µM |
| CN(CC(C(=O)N(Cc1ccncc1)C1C=CS(=O)(=O)C1)c1ccc(-c2ccc(F)cc2)cc1)S(C)(=O)=O (stereo not shown) [I-458, N-(1,1-dioxo-2,3-dihydro-1lambda6-thiophen-3-yl)-2-{4′-fluoro-[1,1′-biphenyl]-4-yl}-3-(N-methylmethanesulfonamido)-N-[(pyridin-4-yl)methyl]propanamide] | > 50 µM |
| O=C(N(Cc1ccncc1)C1C=CS(=O)(=O)C1)C(F)(F)n1cc(-c2ccccc2)nn1 (stereo not shown) [I-581, N-(1,1-dioxo-2,3-dihydro-1lambda6-thiophen-3-yl)-2,2-difluoro-2-(4-phenyl-1H-1,2,3-triazol-1-yl)-N-[(pyridin-4-yl)methyl]acetamide] | > 50 µM |
| O=C(C1CC(Cc2ccccc2)=NO1)N(Cc1ccncc1)C1C=CS(=O)(=O)C1 (stereo not shown) [I-579, 3-benzyl-N-(1,1-dioxo-2,3-dihydro-1lambda6-thiophen-3-yl)-N-[(pyridin-4-yl)methyl]-4,5-dihydro-1,2-oxazole-5-carboxamide] | > 50 µM |
| O=C(Cc1csc(C2CCCC2)n1)N(Cc1ccncc1)C1C=CS(=O)(=O)C1 (stereo not shown) [I-445, 2-(2-cyclopentyl-1,3-thiazol-4-yl)-N-(1,1-dioxo-2,3-dihydro-1lambda6-thiophen-3-yl)-N-[(pyridin-4-yl)methyl]acetamide] | > 50 µM |
| O=C(Cc1ccc(-c2ccccc2)cc1)N(Cc1ccncc1)C1C=CS(=O)(=O)C1 (stereo not shown) [I-323, 2-{[1,1′-biphenyl]-4-yl}-N-(1,1-dioxo-2,3-dihydro-1lambda6-thiophen-3-yl)-N-[(pyridin-4-yl)methyl]acetamide] | 10 to 50 µM |
| CC(C)(O)c1cc(CN(C(=O)C(c2ccc(-c3ccc(F)c(F)c3)cc2F)n2ccnn2)C2C=CS(=O)(=O)C2)ccn1 (single isomer, unassigned) [I-802, (2R*)-N-[(3R**)-1,1-dioxo-2,3-dihydro-1lambda6-thiophen-3-yl]-N-{[2-(2-hydroxypropan-2-yl)pyridin-4-yl]methyl}-2-(1H-1,2,3-triazol-1-yl)-2-{3,3′,4′-trifluoro-[1,1′-biphenyl]-4-yl}acetamide] | 0.5 to 5 µM |
| CC(=O)Nc1ccc(CN(C(=O)Cc2ccc(-n3cccc3)cc2)C2C=CS(=O)(=O)C2)cc1 (stereo not shown) [I-302, N-(1,1-dioxo-2,3-dihydro-1lambda6-thiophen-3-yl)-N-[(4-acetamidophenyl)methyl]-2-[4-(1H-pyrrol-1-yl)phenyl]acetamide] | 10 to 50 µM |
| O=C(Cc1ccc(-n2cccc2)cc1)N(CC12CCC(CC1)CC2)C1C=CS(=O)(=O)C1 (stereo not shown) [I-545, N-({bicyclo[2.2.2]octan-1-yl}methyl)-N-(1,1-dioxo-2,3-dihydro-1lambda6-thiophen-3-yl)-2-[4-(1H-pyrrol-1-yl)phenyl]acetamide] | > 50 µM |
| O=C(Cc1ccc(C2CC(F)(F)C2)cc1)N(Cc1ccncc1)C1C=CS(=O)(=O)C1 (stereo not shown) [I-359, 2-[4-(3,3-difluorocyclobutyl)phenyl]-N-(1,1-dioxo-2,3-dihydro-1lambda6-thiophen-3-yl)-N-[(pyridin-4-yl)methyl]acetamide] | 10 to 50 µM |
| O=C(Cc1ccc(-n2cccc2)cc1)N(Cc1cccc(Br)c1)C1C=CS(=O)(=O)C1 (stereo not shown) [I-157, N-[(3-bromophenyl)methyl]-N-(1,1-dioxo-2,3-dihydro-1lambda6-thiophen-3-yl)-2-[4-(1H-pyrrol-1-yl)phenyl]acetamide] | 0.5 to 5 µM |
| O=C(Cc1ccc2oc3ccccc3c2c1)N(Cc1ccncc1)C1C=CS(=O)(=O)C1 (stereo not shown) [I-428, N-(1,1-dioxo-2,3-dihydro-1lambda6-thiophen-3-yl)-2-{8-oxatricyclo[7.4.0.0^{2,7}]trideca-1(13),2,4,6,9,11-hexaen-4-yl}-N-[(pyridin-4-yl)methyl]acetamide] | > 50 µM |
| C#CCCCC(=O)N1CCN(c2ccc(CN(C(=O)Cc3ccc(-n4cccc4)cc3)C3C=CS(=O)(=O)C3)cc2)CC1 (stereo not shown) [I-238, N-(1,1-dioxo-2,3-dihydro-1lambda6-thiophen-3-yl)-N-({4-[4-(hex-5-ynoyl)piperazin-1-yl]phenyl}methyl)-2-[4-(1H-pyrrol-1-yl)phenyl]acetamide] | 0.5 to 5 µM |
| O=C(Cc1ccc(-n2cccc2)cc1)N(Cc1ncccn1)C1C=CS(=O)(=O)C1 (stereo not shown) [I-483, N-(1,1-dioxo-2,3-dihydro-1lambda6-thiophen-3-yl)-N-[(pyrimidin-2-yl)methyl]-2-[4-(1H-pyrrol-1-yl)phenyl]acetamide] | > 50 µM |
| CC(C)(O)c1csc(CN(C(=O)Cc2ccc(S(F)(F)(F)(F)F)cc2)C2C=CS(=O)(=O)C2)n1 (single isomer, unassigned) [I-708] | 5 to 10 µM |
| O=C(Cc1ccc(-n2cccc2)cc1)N(Cc1ccccc1)C1C=CS(=O)(=O)C1 (single isomer, unassigned) [I-488] | > 50 µM |
| O=C(Cc1ccc(S(F)(F)(F)(F)F)cc1)N(CCc1nccs1)C1C=CS(=O)(=O)C1 (stereo not shown) [I-679, N-(1,1-dioxo-2,3-dihydro-1lambda6-thiophen-3-yl)-2-[4-(pentafluoro-lambda6-sulfanyl)phenyl]-N-[2-(1,3-thiazol-2-yl)ethyl]acetamide] | 0.5 to 5 µM |
| N#CCCN(C(=O)Cc1ccc(-c2ccc(F)cc2)cc1)C1C=CS(=O)(=O)C1 (stereo not shown) [I-386, N-(2-cyanoethyl)-N-(1,1-dioxo-2,3-dihydro-1lambda6-thiophen-3-yl)-2-{4′-fluoro-[1,1′-biphenyl]-4-yl}acetamide] | > 50 µM |
| CS(=O)(=O)N1CCN(C(=O)C(C(=O)N(Cc2ccncc2)C2C=CS(=O)(=O)C2)c2ccc(-c3ccc(F)cc3)cc2)CC1 (stereo not shown) [I-666, N-(1,1-dioxo-2,3-dihydro-1lambda6-thiophen-3-yl)-2-{4′-fluoro-[1,1′-biphenyl]-4-yl}-3-(4-methanesulfonylpiperazin-1-yl)-3-oxo-N-[(pyridin-4-yl)methyl]propanamide] | 5 to 10 µM |
| O=C(Cc1ccc(-n2cccc2)cc1)N(Cc1ccc2ncccc2c1)C1C=CS(=O)(=O)C1 (stereo not shown) [I-222, N-(1,1-dioxo-2,3-dihydro-1lambda6-thiophen-3-yl)-2-[4-(1H-pyrrol-1-yl)phenyl]-N-[(quinolin-6-yl)methyl]acetamide] | 5 to 10 µM |
| CN(C)C(=O)C(C(=O)N(Cc1ccncc1)C1C=CS(=O)(=O)C1)c1ccc(-c2ccc(F)cc2)cc1 (single isomer, unassigned) [I-375, (2R**)-N′-[(3R*)-1,1-dioxo-2,3-dihydro-1lambda6-thiophen-3-yl]-2-{4′-fluoro-[1,1′-biphenyl]-4-yl}-N,N-dimethyl-N′-[(pyridin-4-yl)methyl]propanediamide] | > 50 µM |

Second part, the compound after the results:

| IC50 | SMILES |
| --- | --- |
| > 50 µM | O=C(CCc1cccc(OC(F)(F)F)c1)N(Cc1ccncc1)C1C=CS(=O)(=O)C1 (stereo not shown) [I-508, N-(1,1-dioxo-2,3-dihydro-1lambda6-thiophen-3-yl)-N-[(pyridin-4-yl)methyl]-3-[3-(trifluoromethoxy)phenyl]propanamide] |
| < 0.5 µM | O=C(Cn1cc(-c2cc(F)c(F)c(F)c2)cn1)N(Cc1ccnc(Oc2ccncc2)c1)C1C=CS(=O)(=O)C1 (stereo not shown) [I-772, N-(1,1-dioxo-2,3-dihydro-1lambda6-thiophen-3-yl)-N-{[2-(pyridin-4-yloxy)pyridin-4-yl]methyl}-2-[4-(3,4,5-trifluorophenyl)-1H-pyrazol-1-yl]acetamide] |
| < 0.5 µM | O=C(Cn1cc(-c2ccc(F)cc2)cn1)N(Cc1ccnc(OC(F)F)c1)C1C=CS(=O)(=O)C1 (stereo not shown) [I-662, N-{[2-(difluoromethoxy)pyridin-4-yl]methyl}-N-(1,1-dioxo-2,3-dihydro-1lambda6-thiophen-3-yl)-2-[4-(4-fluorophenyl)-1H-pyrazol-1-yl]acetamide] |
| < 0.5 µM | CC(C)(O)c1cc(CN(C(=O)Cc2ccc(OC(F)(F)C(F)(F)F)cc2)C2C=CS(=O)(=O)C2)ccn1 (single isomer, unassigned) [I-661] |
| < 0.5 µM | COc1cc(CN(C(=O)Cn2cc3cc(C(F)(F)C(F)(F)F)ccc3n2)[C@@H]2C=CS(=O)(=O)C2)ccn1 [I-771, N-[(3R)-1,1-dioxo-2,3-dihydro-1lambda6-thiophen-3-yl]-N-[(2-methoxypyridin-4-yl)methyl]-2-[5-(1,1,2,2,2-pentafluoroethyl)-2H-indazol-2-yl]acetamide] |
| > 50 µM | O=C(Cc1ccc2ncccc2c1)N(Cc1ccncc1)C1C=CS(=O)(=O)C1 (stereo not shown) [I-514, N-(1,1-dioxo-2,3-dihydro-1lambda6-thiophen-3-yl)-N-[(pyridin-4-yl)methyl]-2-(quinolin-6-yl)acetamide] |
| 0.5 to 5 µM | O=C(Cn1cc2ccc(C(F)(F)F)cc2n1)N(Cc1ccncc1)C1C=CS(=O)(=O)C1 (stereo not shown) [I-183, N-(1,1-dioxo-2,3-dihydro-1lambda6-thiophen-3-yl)-N-[(pyridin-4-yl)methyl]-2-[6-(trifluoromethyl)-2H-indazol-2-yl]acetamide] |
| 0.5 to 5 µM | CN(C)c1cc(CN(C(=O)Cc2ccc(-c3ccc(F)c(F)c3)cc2F)C2C=CS(=O)(=O)C2)ccn1 (stereo not shown) [I-99, N-{[2-(dimethylamino)pyridin-4-yl]methyl}-N-(1,1-dioxo-2,3-dihydro-1lambda6-thiophen-3-yl)-2-{3,3′,4′-trifluoro-[1,1′-biphenyl]-4-yl}acetamide] |
| > 50 µM | O=C(Cc1nc(C(F)(F)F)cs1)N(Cc1ccncc1)C1C=CS(=O)(=O)C1 (stereo not shown) [I-371, N-(1,1-dioxo-2,3-dihydro-1lambda6-thiophen-3-yl)-N-[(pyridin-4-yl)methyl]-2-[4-(trifluoromethyl)-1,3-thiazol-2-yl]acetamide] |

Source: patent publication US20260297070A1, “CYCLIC [COMPOUND LEFT OUT] WRN INHIBITORS” (Nimbus Wadjet, Inc., priority 2023, published 2026)
